Publication PMC4224565 (Molecular Pharmaceutics, 2014)

Tests used:
INS-1 tumor mice = assay: Ex vivo biodistribution in INS-1 tumor mice; set-up: species or system mouse; settings: control group, dissected tissue, γ-counter, 2 h post injection, n = 5, mean ± SD
dipeptidyl-peptidase-IV = settings: degraded by dipeptidyl-peptidase-IV via cleavage of two N-terminal residues; cited from earlier work

INS-1 tumor uptake (biodistribution) (INS-1 tumor mice)	Compound	half-life in vivo (dipeptidyl-peptidase-IV)
23.06 ± 3.87%ID/g	O=C(NCCN1C(=O)C=CC1=O)c1ccc(F)nc1 [[^18F]FNEM, N-(2-(2,5-Dioxo-2,5-dihydro-1H-pyrrol-1-yl)ethyl)-6-fluoronicotinamide]	–
–	GLP-1: glucose-dependent hormone released mainly from the small intestine	less than 2 min
